Reference: patent US9221907B2, “Anti-GPR49 monoclonal antibodies” (Bionomics Inc., priority 2011, dated 2015)

Test system: colon tumor cells re-implanted in secondary recipients
Assay: Secondary transplant of GPR49 mAb+irinotecan treated tumor cells
Format: in vivo, mouse
Conditions: 140 day follow-up
From the text: Isolated tumor cells from control or GPR49 mAb+irinotecan treated tumors from the in vivo study outlined in Example 3 were harvested, pooled, dissociated and re-implanted in a limiting dilution secondary transplant assay to measure cancer stem cell frequency. For each treatment group, 8 mice were implanted with 10, 30, 100 cells. […]

## CCc1c2c(nc3ccc(OC(=O)N4CCC(N5CCCCC5)CC4)cc13)-c1cc3c(c(=O)n1C2)COC(=O)[C@]3(O)CC [Irinotecan]
  mice with tumors: 7/8
